{
  "source": "patent US7037656B2",
  "about": "“Methods and compositions for identifying ligands for nuclear receptors” (priority 2000, dated 2006)",
  "assay_in_all_cases": "Yeast 6x EcRE-lacZ β-galactosidase transactivation assay",
  "format_in_all_cases": "cell-based",
  "key": {"Cf EcR": {"target": "T1, Cf EcR (Choristoneura fumiferana, UniProt O77240)", "T1 construct": "human ubiquitin (76 aa) (N, cleaved yes); expressed in transfected cells; host or cells: yeast (Saccharomyces cerevisiae), plasmid YEpCfEcR, CUP1 promoter", "T1 sequence (O77240 1-513)": "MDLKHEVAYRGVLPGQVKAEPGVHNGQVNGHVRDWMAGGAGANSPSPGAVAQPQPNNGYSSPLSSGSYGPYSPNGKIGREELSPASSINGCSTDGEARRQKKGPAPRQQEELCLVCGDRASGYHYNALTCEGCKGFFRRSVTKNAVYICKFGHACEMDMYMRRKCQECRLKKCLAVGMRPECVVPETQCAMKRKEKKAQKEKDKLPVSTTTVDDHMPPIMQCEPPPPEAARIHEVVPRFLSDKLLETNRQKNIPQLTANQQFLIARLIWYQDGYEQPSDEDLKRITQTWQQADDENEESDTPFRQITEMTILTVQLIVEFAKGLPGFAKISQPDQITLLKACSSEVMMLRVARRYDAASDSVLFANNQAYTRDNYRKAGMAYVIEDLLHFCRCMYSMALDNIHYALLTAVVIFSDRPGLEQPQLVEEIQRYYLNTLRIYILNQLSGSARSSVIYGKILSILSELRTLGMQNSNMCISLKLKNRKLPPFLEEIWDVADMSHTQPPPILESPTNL", "details": "RH 5992 10 μM, 4 hours, DMSO control 0.201", "experimental": "(§1) Briefly, yeast cells are cultured in 5 mL of YPD liquid medium overnight at 30° C. The cell culture was diluted 1:20 in YPD media and further grown until cell density reached an O.D of 0.6. at OD600. The cells were pelleted by centrifugation and washed with 10 mL of TE+0.1M lithium acetate. Cells are then resuspended in 10 mL TE+0.1M lithium acetate and incubated at 30° C. for 1 hour. Cells are collected and resuspended in 0.5 mL of TE+ 0.1M lithium acetate. Aliquots of cells (50 μL), were incubated for 15 minutes at 30° C. with 1–2 μg plasmid DNA in the presence of 5 μg of denatured salmon sperm DNA as DNA carrier. In the case of co-transformation, the indicated plasmids were added simultaneously. 50% polyethyleneglycol of molecular weight 4000, diluted in TE, was added to a final concentration of 35%. DMSO was added to the transformation solution simultaneously to a final concentration 3%. The samples were mixed well by vortexing and incubated for an additional 30 minutes at 30° C. The cell mixture is then heated for 15 minutes at 42° C. Cells were then collected and plated onto appropriate yeast selective media. Transformants of 4 plasmids are selected on the complete media without tryptophan, uracil, leucine and histidine.\n(§2) The yeast cells grown overnight in selective liquid media at 30° C. were diluted in prewarmed liquid selective media to 0.1 at OD600 (ODculture). 100 μl of the cell culture was spiked to each well of a.96-well microtiter plate. Ligand (2 μl diluted in DMSO) was added to each well giving a final concentration of DMSO of 2%. As a control, 2 μl of DMSO were also added to additional test wells. The final concentration of the tested compounds in the media is 10 μM. The cells were incubated in the presence of ligand in a shaker at 30° C. After 4 hours of incubation, 100 μl of 2× “Z” Sarcosine-ONPG buffer (120 mM Na2HPO4, 80 mM NaH2PO4, 20 mM KCl, 2 mM MgSO4, 100 mM beta-mercaptoethanol (Sigma), pH 7.0, 0.4% lauroyl sarcosine (Sigma), 4 mg/mL ONPG (Diagnostic Chemicals limited) was added to each well and the plate was further incubated at 37° C. The 2× “Z” Sarcosine-ONPG buffer is freshly prepared or stored at −20° C. prior to use. After incubation at 37° C. for 1 hour. The reaction was stopped by adding 100 μL of quenching solution 0.5 M Na2CO3 and OD405 (ODreaction) and beta-galactosidase activity was measured in a micro plate reader (Biotek) at a wave length of 405–450 nanometers. The effect of copper on enhancement of the transactivation response mediated by the ligands tested was studied by adding CuSO4 to the media to a final concentration of 10 μM.\n(§3) Using the transformation method described above, yeast were co-transformed with a reporter gene as shown in FIG. 2 and the expression vector encoding the full-length Choristoneura fumiferana ecdysone receptor, Cf EcR (FIG. 5A) in the presence or absence of the Cf EcR heterodimer partner, Cf USP (FIG. 6A). Transformed cells were incubated with DMSO alone as a control, or with a proprietary ecdysone receptor ligand (Rohm & Haas RH5992) at final concentration 10 μM for 4 hours. The samples were then assayed for β-galactosidase activity as described above. […] However, as with all systems tested, fruit fly, mosquito and spruce bud worm, co-expression of CfEcR with CfUSP did give rise to constitutive transactivation of reporter gene. […] However, deletion of the A/B domain of the CfUSP abolished this constitutive transactivation of the reporter gene. Thus, in the spruce bud worm system, constitutive transcription is not observed when CfEcR/Cf ΔAB USP or Cf ΔAB EcR/Cf ΔAB USP are co-expressed. […] Ligand dependent transactivation was observed only in the presence of the co-activator GRIP1. We also observed stronger ligand dependent activity for the Cf ΔA/B EcR+Cf ΔA/B USP+GRIP1 combination than the CfEcR+CfΔA/B USP+GRIP1 combination."}, "Cf ΔA/B EcR + Cf USP": {"target": "T2, Cf ΔA/B EcR + Cf USP (Choristoneura fumiferana, UniProt O77240)", "T2 construct": "human ubiquitin (76 aa) (N, cleaved yes); expressed in transfected cells; host or cells: yeast (Saccharomyces cerevisiae)", "T2 sequence (O77240 entry or part of it, stated change not applied)": "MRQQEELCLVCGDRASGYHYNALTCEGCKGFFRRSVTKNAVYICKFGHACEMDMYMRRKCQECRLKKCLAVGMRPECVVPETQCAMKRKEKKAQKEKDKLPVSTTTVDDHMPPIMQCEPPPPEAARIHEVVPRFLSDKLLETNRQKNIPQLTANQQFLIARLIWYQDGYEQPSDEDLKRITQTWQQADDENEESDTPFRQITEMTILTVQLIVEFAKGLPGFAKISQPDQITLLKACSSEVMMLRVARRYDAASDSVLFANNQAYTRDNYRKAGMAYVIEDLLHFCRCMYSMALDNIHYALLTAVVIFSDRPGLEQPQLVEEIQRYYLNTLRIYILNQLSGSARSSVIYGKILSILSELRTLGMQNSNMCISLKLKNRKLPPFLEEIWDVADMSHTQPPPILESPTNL", "T2 sequence (O76202 whole entry partner)": "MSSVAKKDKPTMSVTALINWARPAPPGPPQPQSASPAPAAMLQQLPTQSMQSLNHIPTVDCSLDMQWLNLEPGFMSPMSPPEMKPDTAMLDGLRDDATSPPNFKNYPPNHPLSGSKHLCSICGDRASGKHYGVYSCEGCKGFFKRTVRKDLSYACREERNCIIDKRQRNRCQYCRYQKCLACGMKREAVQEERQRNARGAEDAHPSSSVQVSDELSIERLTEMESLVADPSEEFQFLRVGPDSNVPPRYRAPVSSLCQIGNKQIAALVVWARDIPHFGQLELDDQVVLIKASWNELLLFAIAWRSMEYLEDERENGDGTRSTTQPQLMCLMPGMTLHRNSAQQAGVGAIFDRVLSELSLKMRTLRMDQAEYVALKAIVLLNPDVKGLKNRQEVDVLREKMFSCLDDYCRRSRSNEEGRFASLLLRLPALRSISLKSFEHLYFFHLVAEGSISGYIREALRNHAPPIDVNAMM", "details": "RH 5992 10 μM, 4 hours, DMSO control 2.684", "experimental": "as §1, §2, §3"}, "Cf EcR + CfUSP": {"target": "T3, Cf EcR + CfUSP (Choristoneura fumiferana, UniProt O77240)", "T3 construct": "human ubiquitin (76 aa) (N, cleaved yes); expressed in transfected cells; host or cells: yeast (Saccharomyces cerevisiae)", "T3 sequence (O77240 1-513)": "as the sequence (O77240 1-513) above", "T3 sequence (O76202 whole entry partner)": "as the sequence (O76202 whole entry partner) above", "details": "RH 5992 10 μM, 4 hours, DMSO control 2.734", "experimental": "as §1, §2, §3"}, "[1]": {"target": "T4, Cf EcR + Cf ΔA/B USP + GRIP1 (Choristoneura fumiferana, UniProt O77240)", "T4 construct": "human ubiquitin (76 aa) (N, cleaved yes); expressed in transfected cells; host or cells: yeast (Saccharomyces cerevisiae); GRIP1 from pRS423-ADH1GRIP812", "T4 sequence (O77240 1-513, stated change not applied)": "as the sequence (O77240 1-513) above", "T4 sequence (O76202 with tags, fused parts or gaps partner)": "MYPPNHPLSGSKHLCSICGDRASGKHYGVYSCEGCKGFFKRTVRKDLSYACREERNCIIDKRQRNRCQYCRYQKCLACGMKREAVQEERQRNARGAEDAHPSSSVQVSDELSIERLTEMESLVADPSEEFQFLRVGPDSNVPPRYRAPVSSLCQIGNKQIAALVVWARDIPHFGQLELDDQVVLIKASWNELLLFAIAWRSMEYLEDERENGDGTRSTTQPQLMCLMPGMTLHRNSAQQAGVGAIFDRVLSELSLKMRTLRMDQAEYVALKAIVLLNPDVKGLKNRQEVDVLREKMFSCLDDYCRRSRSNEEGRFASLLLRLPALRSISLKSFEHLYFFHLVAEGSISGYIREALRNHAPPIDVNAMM", "experimental": "as §1, §2, §3"}, "Cf EcR + Cf ΔA/B USP": {"target": "T5, Cf EcR + Cf ΔA/B USP (Choristoneura fumiferana, UniProt O77240)", "T5 construct": "human ubiquitin (76 aa) (N, cleaved yes); expressed in transfected cells; host or cells: yeast (Saccharomyces cerevisiae)", "T5 sequence (O77240 1-513, stated change not applied)": "as the sequence (O77240 1-513) above", "T5 sequence (O76202 with tags, fused parts or gaps partner)": "as the sequence (O76202 with tags, fused parts or gaps partner) above", "details": "RH 5992 10 μM, 4 hours, DMSO control 0.205", "experimental": "as §1, §2, §3"}, "[2]": {"target": "T6, Cf ΔA/B EcR + Cf ΔA/B USP (Choristoneura fumiferana, UniProt O77240)", "T6 construct": "human ubiquitin (76 aa) (N, cleaved yes); expressed in transfected cells; host or cells: yeast (Saccharomyces cerevisiae)", "T6 sequence (O77240 entry or part of it, stated change not applied)": "as the sequence (O77240 entry or part of it, stated change not applied) above", "T6 sequence (O76202 with tags, fused parts or gaps partner)": "as the sequence (O76202 with tags, fused parts or gaps partner) above", "details": "RH 5992 10 μM, 4 hours, DMSO control 0.209", "experimental": "as §1, §2, §3"}, "Cf USP": {"target": "T7, Cf USP (Choristoneura fumiferana, UniProt O76202)", "T7 construct": "human ubiquitin (76 aa) (N, cleaved yes); expressed in transfected cells; host or cells: yeast (Saccharomyces cerevisiae), plasmid pRS425CfUSP, CUP1 promoter", "T7 sequence (O76202 whole entry)": "as the sequence (O76202 whole entry partner) above", "details": "RH 5992 10 μM, 4 hours, DMSO control 0.233", "experimental": "as §1, §2, §3"}},
  "data": [
    {"molecule": "CCc1ccc(C(=O)NN(C(=O)c2cc(C)cc(C)c2)C(C)(C)C)cc1", "note": "[RH 5992, tebufenozide]", "values": [
      {"measurement": "β-galactosidase activity", "setting": "Cf EcR", "result": 0.175},
      {"measurement": "β-galactosidase activity", "setting": "Cf ΔA/B EcR + Cf USP", "result": 3.000},
      {"measurement": "β-galactosidase activity", "setting": "Cf EcR + CfUSP", "result": 3.000},
      {"measurement": "β-galactosidase activity", "setting": "[1]; RH 5992 10 μM, 4 hours, yeast, Cf EcR + Cf ΔA/B USP + GRIP1, DMSO control 0.223", "result": 0.492},
      {"measurement": "response of the complex to the ligand (in words)", "setting": "[1]; complex CfEcR:CfΔA/B USP:GRIP1", "result": "responsive, but not very sensitive"},
      {"measurement": "β-galactosidase activity", "setting": "Cf EcR + Cf ΔA/B USP", "result": 0.241},
      {"measurement": "β-galactosidase activity", "setting": "[2]", "result": 0.234},
      {"measurement": "β-galactosidase activity", "setting": "Cf USP", "result": 0.230}
    ]}
  ]
}
